Test results: US8426420B2, “Heterocyclic pyrazole-carboxamidesas P2Y12 antagonists” (Sanofi, priority 2007, dated 2013)

Assays:
[1] = system: human platelet rich plasma; assay: Inhibition of human platelet aggregation, 96-well assay; type: cell-based
Experimental: Inhibition of Human Platelet Aggregation
Alternatively to a binding assay which measures a compound's ability to bind to the P2Y12 receptor, the effect on cellular function was also determined. This ability of the compound was evaluated in two platelet aggregation assays: in 96-well plates and with the “Born”-method using single cuvettes.
Whole blood was collected from healthy volunteers using 20 ml syringes containing 2 ml of ACD-A Aqua-Citrat-Dextrose-A, Fresenius). The anticoagulated whole blood was transferred into 15 ml polypropylene conical tubes (10 ml per tube). The tubes were centrifuged for 15 minutes at 150×g at RT without using the centrifuge brake. This procedure leads to a pellet of cellular components and a supernatant of platelet rich plasma (PRP). The PRP layer was collected from each tube and pooled for each donor. To avoid carry over of cellular components following centrifugation, approximately 5 ml of PRP was left in the tube. The platelet concentration was determined using a Coulter Counter.
The 15 ml tubes containing the pellet of cellular components were centrifuged again for 10 minutes at 1940×g. This pelleted out most particulate blood constituents remaining, leaving a layer of Platelet Poor Plasma (PPP). The PPP was collected for each donor. The PRP layer, previously set aside, was diluted with PPP to a final concentration of approximately 3×E8 platelets/ml with the PPP.
The human platelet aggregation assay is performed in 96-well plates using a microtiter plate reader (SpectraMax Plus 384 with SoftMax Pro software from Molecular Devices). In the plate 15 μl of test compound at 10× final concentration in NaCl is mixed with 120 μl fresh PRP and incubated for 5 minutes. Following that incubation period, 15 μl of 40 μM ADP is added to the reaction mix. This addition of ADP is sufficient to induce aggregation in the absence of an inhibitor. The plates are then transferred to the microplate reader and aggregation is measured over 20 minutes. The instrument settings include:
Absorbance at 650 nm, run time 20 minutes with readings in 1-minute intervals and 50 seconds shaking between readings all performed at 37° C.

human P2Y12 receptor = human P2Y12 receptor (Homo sapiens, UniProt Q9H244); assay: Human P2Y12 recombinant cell membrane binding assay with 33P 2MeS-ADP; details: competition against 33P 2MeS-ADP, membranes of CHO cells with recombinant human P2Y12 receptor
Experimental: The ability of the compounds of the formula Ito inhibit the P2Y12 receptor can be assessed by determining the concentration of the compound of the formula I that binds to the human P2Y12 Recombinant Cell Membrane Binding Assay with 33P 2MeS-ADP.
Human P2Y12 Recombinant Cell Membrane Binding Assay
The ability of a test compound to bind to the P2Y12 receptor was evaluated in a recombinant cell membrane binding assay. In this competitive binding assay, the test compound competed against a radiolabeled agonist for binding to the P2Y12 receptor, expressed on the cell membrane. Inhibition of binding of the labeled material was measured and correlated to the amount and potency of the test compound. This binding assay is a modification of the procedure described by Takasaki, J. et. al, Mol. Pharmacol., 2001, Vol. 60, pg. 432. A membrane preparation was prepared from Chinese Hamster Ovary (CHO) cells with recombinant expression of the human P2Y12 receptor according to standard procedures as a source of P2Y12.
To a 96-well microtiterplate the following were added: a) 24 μl of assay buffer (10 mM HEPES, 138 mM NaCl, […] KCl, 12 mM NaHCO3, 1 mM EDTA-Na, 0.1% BSA, pH 7.4) b) 1 μL compound in DMSO c) 50 μL P2Y12 CHO membrane (20 μg/ml) and after 15 min at RT d) 25 μL of 1.61 nM 33P 2MeS-ADP (Perkin Elmer NEN custom synthesis, specific activity ˜2100 Ci/mmol) made in assay buffer.
After 20 min incubation at RT samples were transferred to 96-well microtiter filterplates (Millipore HTS GF/B), pre-wetted for 20 min with 300 μL of stop buffer (10 mM HEPES, 138 mM NaCl pH 7.4) and then filtered through completely with a Millipore plate vacuum. Next, wells were washed four times with 400 μl/well of stop buffer on a plate vacuum. The plate was disassembled and allowed to air dry overnight with the filter side up over night. The filter plates were snapped into adapter plates and 0.1 mL of Microscint 20 Scintillation Fluid (Perkin Elmer #6013621) was added to each well. The top of the filterplate was sealed with plastic plate covers. The sealed filterplate were incubated 2 hours at RT. A Microbeta Scintillation Counter was used to measure counts.
Compounds were diluted as 10 mM DMSO stocks and tested in a four-point, five-fold dilution series run in triplicate beginning at 10 μM, final concentration. Data were analyzed using a four-parameter curve fit with a fixed minimum and maximum experimentally defined as the average positive and negative controls on each plate.

Sequence of human P2Y12 receptor (Q9H244 whole entry): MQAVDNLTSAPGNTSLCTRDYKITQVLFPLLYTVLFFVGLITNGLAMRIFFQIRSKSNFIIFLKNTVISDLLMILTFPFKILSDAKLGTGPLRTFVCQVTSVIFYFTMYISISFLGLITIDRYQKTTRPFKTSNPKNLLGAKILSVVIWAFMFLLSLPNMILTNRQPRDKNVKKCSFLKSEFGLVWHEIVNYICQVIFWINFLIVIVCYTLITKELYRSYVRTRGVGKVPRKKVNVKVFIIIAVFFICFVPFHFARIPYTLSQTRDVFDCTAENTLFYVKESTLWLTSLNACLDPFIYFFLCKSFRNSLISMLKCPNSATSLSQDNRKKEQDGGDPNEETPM

Structure (SMILES) | IC50 ([1]; Homo sapiens, Platelet, 20 min) | IC50 (human P2Y12 receptor) | IC50 ([1]; ADP-induced aggregation, human platelet rich plasma, 96-well plates, AUC of absorbance over 20 minutes)
CCOC(=O)N1CCN(C(=O)[C@H](CCC(=O)O)NC(=O)c2cc(OCC(=O)N3CCC[C@H]3C(=O)N3CCCCC3)n(-c3ccccc3)n2)CC1 [Example 18, 4-{(S)-4-Carboxy-2-[(5-{2-oxo-2-[(S)-2-(piperidine-1-carbonyl)-pyrrolidin-1-yl]-ethoxy}-1-phenyl-1H-pyrazole-3-carbonyl)-amino]-butyryl}-piperazine-1-carboxylic acid ethyl ester] | 70 nM | 146 nM | –
CCOC(=O)N1CCN(C(=O)[C@H](CCC(=O)O)NC(=O)c2cc(OCC(=O)N3CCC[C@H]3C(=O)NC3CC3(F)F)n(-c3ccccc3)n2)CC1 (stereo partly drawn) [Example 21, 4-{(S)-4-Carboxy-2-[(5-{2-[(S)-2-(2,2-difluoro-cyclopropylcarbamoyl)-pyrrolidin-1-yl]-2-oxo-ethoxy}-1-phenyl-1H-pyrazole-3-carbonyl)-amino]-butyryl}-piperazine-1-carboxylic acid ethyl ester] | 62 nM | 32 nM | –
CCOC(=O)N1CCN(C(=O)[C@H](CC(=O)O)NC(=O)c2cc(OCC(=O)N3CCC[C@H]3C(=O)NCC(F)(F)F)n(-c3ccccc3)n2)CC1 [Example 58, 4-{(S)-3-Carboxy-2-[(5-{2-[(S)-2-(2,2,2-trifluoro-ethylcarbamoyl)-pyrrolidin-1-yl]-2-oxo-ethoxy}-1-phenyl-1H-pyrazole-3-carbonyl)-amino]-propionyl}-piperazine-1-carboxylic acid ethyl ester] | 60 nM | 96 nM | –
CCOC(=O)N1CCN(C(=O)[C@H](CCC(=O)O)NC(=O)c2cc(OCC(=O)N3CCC[C@H]3C(=O)NC3CC3)n(-c3cccc(F)c3)n2)CC1 [Example 71, 4-((S)-4-Carboxy-2-{[5-[2-((S)-2-cyclopropylcarbamoyl-pyrrolidin-1-yl)-2-oxo-ethoxy]-1-(3-fluoro-phenyl)-1H-pyrazole-3-carbonyl]-amino}-butyryl)-piperazine-1-carboxylic acid ethyl ester] | 710 nM | 192 nM | –
CCOC(=O)N1CCN(C(=O)[C@H](CCC(=O)O)NC(=O)c2cc(OCC(=O)N3CCC[C@H]3C(=O)NCC3CC3)n(-c3cccc(F)c3)n2)CC1 [Example 74, 4-((S)-4-Carboxy-2-{[5-[2-((S)-2-cyclopropylmethylcarbamoyl-pyrrolidin-1-yl)-2-oxo-ethoxy]-1-(3-fluoro-phenyl)-1H-pyrazole-3-carbonyl]-amino}-butyryl)-piperazine-1-carboxylic acid ethyl ester] | 260 nM | 182 nM | –
CCOC(=O)N1CCN(C(=O)[C@H](CCC(=O)O)NC(=O)c2cc(OCC(=O)N3CCC[C@H]3C(=O)NCC(F)F)n(-c3cccc(F)c3)n2)CC1 [Example 76, 4-((S)-4-Carboxy-2-{[5-[2-((S)-2-(2,2-difluoroethylcarbamoyl)-pyrrolidin-1-yl)-2-oxo-ethoxy]-1-(3-fluoro-phenyl)-1H-pyrazole-3-carbonyl]-amino}-butyryl)-piperazine-1-carboxylic acid ethyl ester] | 170 nM | 28 nM | –
CCOC(=O)N1CCN(C(=O)[C@H](CC(=O)O)NC(=O)c2cc(OCC(=O)N3CCC[C@H]3C(=O)NCC3CC3)n(-c3cccc(F)c3)n2)CC1 [Example 77, 4-((S)-3-Carboxy-2-{[5-[2-((S)-2-cyclopropylmethyl-carbamoyl-pyrrolidin-1-yl)-2-oxo-ethoxy]-1-(3-fluoro-phenyl)-1H-pyrazole-3-carbonyl]-amino}-propionyl)-piperazine-1-carboxylic acid ethyl ester] | – | 28 nM | 160 nM
CCOC(=O)N1CCN(C(=O)[C@H](CCC(=O)O)NC(=O)c2cc(OCC(=O)N3CCC[C@H]3C(=O)NC3CCC3)n(-c3ccc(F)c(F)c3)n2)CC1 [Example 83, 4-((S)-4-Carboxy-2-{[5-[2-((S)-2-cyclobutylcarbamoyl-pyrrolidin-1-yl)-2-oxo-ethoxy]-1-(3,4-difluoro-phenyl)-1H-pyrazole-3-carbonyl]-amino}-butyryl)-piperazine-1-carboxylic acid ethyl ester] | 120 nM | 31 nM | –
CCOC(=O)N1CCN(C(=O)[C@H](CCC(=O)O)NC(=O)c2cc(OCC(=O)N3CCC[C@H]3C(=O)NCC3CC3)n(-c3ccc(F)c(F)c3)n2)CC1 [Example 84, 4-((S)-4-Carboxy-2-{[5-[2-((S)-2-cyclopropylmethylcarbamoyl-pyrrolidin-1-yl)-2-oxo-ethoxy]-1-(3,4-difluoro-phenyl)-1H-pyrazole-3-carbonyl]-amino}-butyryl)-piperazine-1-carboxylic acid ethyl ester] | 550 nM | 92 nM | –
CCOC(=O)N1CCN(C(=O)[C@H](CCCCOC(C)=O)NC(=O)c2cc(OCC(=O)N3CCC[C@H]3C(=O)NC3CCC3)n(-c3ccccc3)n2)CC1 [Example 237, 4-[(S)-6-Acetoxy-2-({5-[2-((S)-2-cyclobutylcarbamoyl-pyrrolidin-1-yl)-2-oxo-ethoxy]-1-phenyl-1H-pyrazole-3-carbonyl}-amino)-hexanoyl]-piperazine-1-carboxylic acid ethyl ester] | – | 30 nM | –

Further lines, with some results ahead:

IC50 ([1]; Homo sapiens, Platelet, 20 min) | IC50 (human P2Y12 receptor) | Structure (SMILES) | IC50 ([1]; ADP-induced aggregation, human platelet rich plasma, 96-well plates, AUC of absorbance over 20 minutes)
30 nM | 19 nM | CCOC(=O)N1CCN(C(=O)[C@H](CCC(=O)O)NC(=O)c2cc(OCC(=O)N3CCC[C@H]3C(=O)NC3CCC3)n(-c3ccccc3)n2)CC1 [Example 5] | –
80 nM | 109 nM | CCOC(=O)N1CCN(C(=O)[C@H](CCC(=O)O)NC(=O)c2cc(OCC(=O)N3CC[C@H]3C(=O)NC3CCC3)n(-c3ccccc3)n2)CC1 [Example 41, 4-[(S)-4-Carboxy-2-({5-[2-((S)-2-cyclobutylcarbamoyl-azetidin-1-yl)-2-oxo-ethoxy]-1-phenyl-1H-pyrazole-3-carbonyl}-amino)-butyryl]-piperazine-1-carboxylic acid ethyl ester] | –
– | 22 nM | CCCCOC(=O)N1CCN(C(=O)[C@@H](NC(=O)c2cc(OCC(=O)N3CCC[C@H]3C(=O)NC3CCC3)n(-c3ccccc3)n2)[C@H](C)CC)CC1 [Example 229, 4-[(2S,3R)-2-({5-[2-((S)-2-Cyclobutylcarbamoyl-pyrrolidin-1-yl)-2-oxo-ethoxy]-1-phenyl-1H-pyrazole-3-carbonyl}-amino)-3-methyl-pentanoyl]-piperazine-1-carboxylic acid butyl ester] | –
– | 85 nM | CCCCOC(=O)N1CCN(C(=O)[C@H](CC2CC2)NC(=O)c2cc(OCC(=O)N3CCC[C@H]3C(=O)NC3CCC3)n(-c3ccccc3)n2)CC1 [Example 234, 4-[(S)-2-({5-[2-((S)-2-Cyclobutylcarbamoyl-pyrrolidin-1-yl)-2-oxo-ethoxy]-1-phenyl-1H-pyrazole-3-carbonyl}-amino)-3-cyclopropyl-propionyl]-piperazine-1-carboxylic acid butyl ester] | –
– | 36 nM | CCCCOC(=O)N1CCN(C(=O)[C@H](CC(F)(F)F)NC(=O)c2cc(OCC(=O)N3CCC[C@H]3C(=O)NC3CCC3)n(-c3ccccc3)n2)CC1 [Example 274, 4-[(S)-2-({5-[2-((S)-2-Cyclobutylcarbamoyl-pyrrolidin-1-yl)-2-oxo-ethoxy]-1-phenyl-1H-pyrazole-3-carbonyl}-amino)-4,4,4-trifluoro-butyryl]-piperazine-1-carboxylic acid butyl ester] | –
